Results reported in US11780832B2, “Lactivicin compounds, their preparation and use as antibacterial agents” (priority 2021, dated 2023).

What was measured:
Format in all cases: cell-based
[1] = system: Klebsiella pneumoniae CMY-DHA; experiment: MIC against CMY-DHA producing strains, compound alone; conditions: row r32
Experimental: (§1) Gram-negative and Gram-positive bacterial strains used during the in vitro minimum inhibitory concentration (MIC) determination were obtained either from the American Type Culture Collection (ATCC) or from clinical specimens. All strains were characterized genotypically and the respective antibiotic resistance markers for each strain were identified.
(§2) Isolates were sub-cultured onto appropriate media and stocked in skim milk at −80° C. Following two subcultures from frozen stock, in vitro antimicrobial susceptibility testing was performed using the Clinical and Laboratory Standards Institute (CLSI) broth microdilution method. Briefly, fresh cultures were suspended in culture media to give a final stock inoculum size of 5×10^7 colony forming units per milliliter of broth (CFU/mL). Test compounds were prepared at a stock solution concentration equal to 128 μg/mL, then diluted to give a final an initial working concentration of 32 μg/mL. 100 μL of the stock solutions were added to the first wells in a 96-well plate and were then diluted using a 2-fold dilution method to give a range of 32-0.025 μg/mL. 100 μL of the bacterial suspensions were then added to the 96-well plates to give a final working inoculum size of 5×10^5 CFU/mL. The final compound concentration range was 16-0.0125 μg/mL. […] MICs for comparator agents were determined using custom-designed, in-house prepared 96-well broth microdilution panels.

[2] = system: Proteus mirabilis CMY-DHA; experiment: as above; conditions: row r36
Experimental: as §1, §2

Escherichia coli CMY-DHA [3] = experiment: as above
Experimental: as §1, §2

[4] = system: Klebsiella pneumoniae SHV-12; experiment: MIC, CLSI broth microdilution; conditions: SHV12, SHV-12, read-out: MIC
In short: (§3)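 Inhibitory concentrations were measured in broth following CLSI microdilution rules. Test organisms, each with known resistance determinants, were inoculated at a final 5×10^5 CFU/mL into wells holding compound at final concentrations from 16 down to 0.0125 μg/mL.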

[5] = system: Pseudomonas aeruginosa AmpC overexpressed; experiment: MIC, CLSI broth microdilution
In short: (§4)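 Genotyped isolates from ATCC or clinical sources were subcultured twice from −80 °C skim-milk stocks, then tested by CLSI broth microdilution. Compounds were serially diluted 2-fold to a final 16-0.0125 μg/mL, with a final inoculum of 5×10^5 CFU/mL.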

[6] = system: Pseudomonas aeruginosa OprD negative; experiment: MIC, CLSI broth microdilution
In short: as §4

[7] = system: Enterobacter cloacae species complex NDM-1; experiment: MIC, CLSI broth microdilution
In short: as §3

[8] = system: Pseudomonas aeruginosa ATCC 27853; experiment: MIC, CLSI broth microdilution; conditions: ATCC27853
In short: as §3

Escherichia coli CMY-2 = experiment: MIC, CLSI broth microdilution; conditions: CMY2
In short: as §3

[9] = system: Escherichia coli ATCC 25922; experiment: MIC, CLSI broth microdilution; conditions: ATCC25922
In short: as §3

[10] = system: Serratia marcescens AmpC overexpressed; experiment: MIC, CLSI broth microdilution
In short: as §4

[11] = system: Escherichia coli CTX-M-15; experiment: MIC, CLSI broth microdilution; conditions: CTXM15
In short: as §3

[12] = system: Klebsiella pneumoniae OXA-163, OXA-1_OXA-30, SHV-1, TEM-1; experiment: MIC, CLSI broth microdilution
In short: as §4

[13] = system: Klebsiella pneumoniae KPC-2; experiment: MIC, CLSI broth microdilution; conditions: KPC2
In short: as §3

[14] = system: Serratia marcescens SME-2; experiment: MIC, CLSI broth microdilution; conditions: SME2
In short: as §3

Escherichia coli SHV-12 = experiment: MIC, CLSI broth microdilution; conditions: SHV12
In short: as §3

[15] = system: Acinetobacter baumannii ATCC 19606; experiment: MIC, CLSI broth microdilution; conditions: ATCC19606
In short: as §3

[16] = system: Klebsiella aerogenes VIM-1, SHV-12; experiment: MIC, CLSI broth microdilution
In short: as §3

[17] = system: Klebsiella pneumoniae OXA-48, SHV-1; experiment: MIC, CLSI broth microdilution
In short: as §4

[18] = system: Klebsiella pneumoniae CMY-DHA; experiment: Synergistic activity: MIC in the presence of Avibactam; conditions: row r32, in the presence of Avibactam @ 4 μg/mL
Experimental: as §2
(§5) The same method used to test the activity of the claimed compounds was used to determine their synergistic activity when combined with a β-lactamase inhibitor except that either a fixed concentration or fixed ratio of a β-lactamase inhibitor was added to the 96-well plates prior to adding the bacteria cultures. Synergistic activity was defined as the reduction of MIC of a given compound when tested using the β-lactamase inhibitor versus testing the compound in the absence of a β-lactamase inhibitor.

[19] = system: Proteus mirabilis CMY-DHA; experiment: as above; conditions: row r36, in the presence of Avibactam @ 4 μg/mL
Experimental: as §2, §5

Escherichia coli CMY-DHA [20] = experiment: as above
Experimental: as §2, §5

[21] = system: Escherichia coli Elevated AmpC; experiment: as above
Experimental: as §2, §5

[22] = system: Enterobacter cloacae species complex Elevated AmpC; experiment: as above
Experimental: as §2, §5

[23] = system: Citrobacter freundii species complex Elevated AmpC; experiment: as above; conditions: row r16, in the presence of Avibactam @ 4 μg/mL
Experimental: as §2, §5

[24] = strain of row r26, in the presence of Avibactam @ 4 μg/mL
[25] = strain of row r27, in the presence of Avibactam @ 4 μg/mL
[26] = strain of row r28, in the presence of Avibactam @ 4 μg/mL
[27] = strain of row r29, in the presence of Avibactam @ 4 μg/mL
[28] = strain of row r30, in the presence of Avibactam @ 4 μg/mL
[29] = strain of row r31, in the presence of Avibactam @ 4 μg/mL
[30] = strain of row r34, in the presence of Avibactam @ 4 μg/mL
[31] = strain of row r35, in the presence of Avibactam @ 4 μg/mL
[32] = strain of row r10, in the presence of Avibactam @ 4 μg/mL
[33] = strain of row r11, in the presence of Avibactam @ 4 μg/mL
[34] = strain of row r12, in the presence of Avibactam @ 4 μg/mL
[35] = strain of row r13, in the presence of Avibactam @ 4 μg/mL
[36] = strain of row r14, in the presence of Avibactam @ 4 μg/mL
[37] = strain of row r15, in the presence of Avibactam @ 4 μg/mL
[38] = in the presence of Avibactam @ 4 μg/mL
[39] = strain of row r7, in the presence of Avibactam @ 4 μg/mL
[40] = strain of row r20, in the presence of Avibactam @ 4 μg/mL

Measured: MIC

Nc1nc(/C(=N/OC2(C(=O)O)CC2)C(=O)N[C@H]2CON(C3(C(=O)O)C[C@H](N4C(=O)c5cc(O)c(O)cc5C4=O)C(=O)O3)C2=O)ns1 (stereo partly drawn) [Cmpd 18, (4S)-2-[(4S)-4-{[(2Z)-2-(5-amino-1,2,4-thiadiazol-3-yl)-2-{[(1-carboxycyclopropyl)oxy]imino}acetyl]amino}-3-oxo-1,2-oxazolidin-2-yl]-4-(5,6-dihydroxy-1,3-dioxo-1,3-dihydro-2H-isoindol-2-yl)-5-oxooxolane-2-carboxylic acid]
0.0149 µg/mL: [17]
<=0.008 μg/mL: Escherichia coli CMY-DHA [20]; [25] | Escherichia coli CMY-DHA [20]; [28] | [21]; [32] | [21]; [33] | [21]; [35] | [21]; [36] | [22]; [40]
0.25 µg/mL: Escherichia coli CMY-DHA [3]; strain of row r28 | [15] | [18]
0.12 µg/mL: Escherichia coli CMY-DHA [3]; strain of row r27 | [6] | [8] | [9] | [12] | [22]; [39]
1 µg/mL: [1] | [2] | Escherichia coli CMY-DHA [3]; strain of row r29 | [5] | [11] | Escherichia coli SHV-12
0.06 µg/mL: [13] | [14] | [19] | Escherichia coli CMY-DHA [20]; [27] | Escherichia coli CMY-DHA [20]; [29] | [21]; [34] | [21]; [37] | [22]; [38]
0.015 µg/mL: Escherichia coli CMY-DHA [20]; [30] | Escherichia coli CMY-DHA [20]; [31]
0.5 µg/mL: Escherichia coli CMY-DHA [3]; strain of row r26 | Escherichia coli CMY-DHA [3]; strain of row r30 | Escherichia coli CMY-DHA [3]; strain of row r34 | Escherichia coli CMY-DHA [3]; strain of row r35 | [7] | [10] | [16]
0.03 µg/mL: [4] | Escherichia coli CMY-DHA [20]; [24] | Escherichia coli CMY-DHA [20]; [26] | [23]
2 µg/mL: Escherichia coli CMY-DHA [3]; strain of row r31 | Escherichia coli CMY-2

Nc1nc(/C(=N/OC2(C(=O)O)CCOCC2)C(=O)N[C@H]2CON(C3(C(=O)O)C[C@H](N4C(=O)c5cc(O)c(O)nc5C4=O)C(=O)O3)C2=O)cs1 (stereo partly drawn) [Cmpd 26, 4-({(Z)-[1-(2-amino-1,3-thiazol-4-yl)-2-({(4S)-2-[(4S)-2-carboxy-4-(2,3-dihydroxy-5,7-dioxo-5,7-dihydro-6H-pyrrolo[3,4-b]pyridin-6-yl)-5-oxooxolan-2-yl]-3-oxo-1,2-oxazolidin-4-yl}amino)-2-oxoethylidene]amino}oxy)oxane-4-carboxylic acid]
8 µg/mL: Escherichia coli CMY-DHA [3]; strain of row r31
2 µg/mL: Escherichia coli CMY-DHA [3]; strain of row r26 | Escherichia coli CMY-DHA [3]; strain of row r29 | [6] | [7] | [8]
<=0.008 μg/mL: Escherichia coli CMY-DHA [20]; [28] | [21]; [35] | [22]; [40]
0.06 µg/mL: [4] | [19] | Escherichia coli CMY-DHA [20]; [26] | Escherichia coli CMY-DHA [20]; [30] | Escherichia coli CMY-DHA [20]; [31]
0.25 µg/mL: Escherichia coli CMY-DHA [3]; strain of row r27 | [16] | Escherichia coli CMY-DHA [20]; [24] | [21]; [34] | [22]; [38] | [23]
4 µg/mL: [1] | [2] | [5] | Escherichia coli CMY-2 | [11] | Escherichia coli SHV-12
0.5 µg/mL: [9] | [10] | [14] | [18] | Escherichia coli CMY-DHA [20]; [27] | Escherichia coli CMY-DHA [20]; [29] | [22]; [39]
1 µg/mL: Escherichia coli CMY-DHA [3]; strain of row r28 | Escherichia coli CMY-DHA [3]; strain of row r30 | Escherichia coli CMY-DHA [3]; strain of row r34 | Escherichia coli CMY-DHA [3]; strain of row r35 | [15]
0.03 µg/mL: Escherichia coli CMY-DHA [20]; [25]
0.015 µg/mL: [21]; [32] | [21]; [36]
0.0149 µg/mL: [13] | [17]
0.12 µg/mL: [12] | [21]; [33] | [21]; [37]
